Structures can show the parent of a compound that is named as a salt.
Tests used:
[1] = tested on: B16F10 parental and DTIC-resistant cells; experiment: Tumor growth by DTIC-sensitive and DTIC-resistant B16F10 cells; format: in vivo, mouse; conditions: chow 100 mg/kg
Protocol: Dacarbazine-resistant B16F10 mouse melanoma cells were generated by continuously culturing the cells in the presence of DTIC (D2390, Sigma-Aldrich, St. Louis, Mo.). First, the cells were treated with 500 μg/mL DTIC for one week. Following this initial DTIC treatment, the remaining (˜10%) viable cells were allowed to recover for one week, after which 750 μg/mL of DTIC was added to the cell media for 5 days. Subsequent to this high-dose treatment, the cells were allowed to recover in the presence of low-dose DTIC (100 μg/mL) for one week. The cells were then continuously cultured in cell media containing 200 μg/mL DTIC for at least one month prior to grafting the cells into mice. DTIC was added to fresh cancer cell media every 3 days. For tumor growth experiments, 5×10^4 B16F10 parental and DTIC-resistant cells were subcutaneously injected into the lower flank of 7-week-old C57BL/6 mice.

[2] = tested on: MeWo human melanoma cells; experiment: Subcutaneous MeWo tumor growth in immunocompromised mice; format: in vivo; conditions: oral
Protocol: (§1) FIG. 4. Therapeutic LXR Activation Inhibits Melanoma Tumor Growth. […] Representative tumor images shown correspond to tumors extracted at the final day (d12). n=10-18 (A), 8-10 (B). (C-E) Primary tumor growth by 1×10^6 MeWo (C), […] SK-Mel-334.2 (D), and 2×10^6 SK-Mel-2 (E) human melanoma cells subcutaneously injected into immunocompromised mice. […] Tumor images shown correspond to last day of measurements. n=6-34 (C), 8 (D), 5 (E). (F) 5×10^4 B16F10 cells were injected subcutaneously into C57BL/6-WT mice. Upon tumor growth to 150 mm^3, mice were fed continuously with a control chow or a chow containing GW3965 (150 mg/kg), and tumor growth was measured daily. n=6-13. […] Tumor volume was calculated as (small diameter)^2×(large diameter)/2. […] Scale bars, 5 mm (A-D), 50 μm (J, K), 25 μm (L).

[3] = tested on: B16F10 mouse melanoma cells; experiment: Subcutaneous B16F10 tumor growth in C57BL/6 mice; format: in vivo
Protocol: as §1
The mice were palpated daily for tumor formation and after detection of tumors measuring […] in volume, the mice were assigned to a control chow or a chow containing each respective LXR agonist: LXR-623 (20 mg/kg/day), WO-2007-002563 Ex. 19 (100 mg/kg/day), WO-2010-0138598 Ex. 9 (10 mg/kg/day or 100 mg/kg/day), or SB742881 (100 mg/kg/day). The LXR drug compounds were formulated in the mouse chow by Research Diets, Inc. Tumor dimensions were measured using digital calipers, and tumor volume was calculated as (small diameter)^2×(large diameter)/2.

[4] = tested on: MeWo, HT-144, SK-Mel-2, SK-Mel-334.2 human melanoma cells; experiment: Cell invasion assay (trans-well matrigel); format: cell-based; conditions: MeWo, 1 μM, 72 hours
Description: FIG. 2. Activation of LXRβ Signaling Suppresses Melanoma Cell Invasion and Endothelial Recruitment. (A) Heat-map depicting microarray-based expression levels of LXR and RXR isoforms in the NCI-60 melanoma cell line collection. The heat map for these genes is extracted from the larger nuclear hormone receptor family heat map (FIG. 3). Color-map key indicates the change in standard deviations for the expression value of each receptor relative to the average expression value of all microarray-profiled genes (>39,000 transcript variants) in each cell line. (B) Cell invasion by 1×10^5 MeWo, 5×10^4 HT-144, 5×10^5 SK-Mel-2, and 5×10^4 SK-Mel-334.2 human melanoma cells. Cells were treated with DMSO, GW3965, T0901317, or Bexarotene at 1 μM for 72 hours and subjected to a trans-well matrigel invasion assay. n=4-8. (C) 5×10^4 MeWo, HT-144, SK-Mel-2, and SK-Mel-334.2 human melanoma cells were tested for their ability to recruit 1×10^5 endothelial cells in a trans-well migration assay, following treatment of the melanoma cells with DMSO, GW3965, T0901317, or Bexarotene at 1 μM for 72 hours. n=4-8. […] Scale bar, 50 μm. *p<0.05, **p<0.01, ***p<0.001, ****p<0.0001.
The cell invasion assay was performed as previously described in detail (Pencheva et al., 2012) using a trans-well matrigel invasion chamber system (354480, BD Biosciences). In brief, various melanoma cells were cultured in the presence of DMSO, GW3965, T0901317, or Bexarotene at 1 μM for 56 hours, after which melanoma cells were switched to starvation media (0.2% FBS) for 16 hours in the presence of each drug. Following starvation, cells were seeded into matrigel-coated trans-well inserts, and the invasion assay was allowed to proceed for 24 hours at […]. For ApoE antibody neutralization experiments, 40 μg/mL 1 D7 anti-ApoE blocking antibody (Heart Institute, University of Ottawa, Ottawa, Canada) or […] anti-IgG control antibody (AB-108-C, R&D Systems, Minneapolis, Minn.) was added to each trans-well insert at the start of the assay.
The cells were then serum starved for 16 hours in 0.2% FBS media in the presence of each corresponding drug or DMSO. Following serum starvation, the cells were subjected to the trans-well invasion assay using a matrigel invasion chamber system (354480, BD Biosciences). Invasion chambers were pre-equilibrated prior to the assay by adding 0.5 mL of starvation media to the top and bottom wells. Meanwhile, cancer cells were trypsinized and viable cells were counted using trypan blue. Cancer cells were then resuspended at a concentration of 2×10^5 cells/1 mL starvation media, and 0.5 mL of cell suspension, containing 1×10^5 cells, was seeded into each trans-well. The invasion assay was allowed to proceed for 24 hours at 37° C. […] Following fixation, the inserts were washed in PBS, cut out, and mounted onto slides using VectaShield mounting medium containing DAPI nuclear stain (H-1000, Vector Laboratories). The basal side of each insert was imaged using an inverted fluorescence microscope (Zeiss Axiovert 40 CFL) at 5× magnification, and the number of DAPI-positive cells was quantified using ImageJ.

ApoE promoter = ApoE promoter activity assay (luciferase, ME.1/ME.2); format: cell-based, human; conditions: 1 μM
Description: FIG. 11. LXRβ Activation Suppresses Melanoma Invasion and Endothelial Recruitment by Transcriptionally Enhancing Melanoma-Cell ApoE Expression. […] Scale bar, 50 μm.
The ApoE promoter, consisting of a sequence spanning 980 base pairs upstream and 93 base pairs downstream of the ApoEgene, was cloned into a pGL3-Basic vector (E1751, Promega Corporation, Madison, Wis.) upstream of the firefly luciferase gene using NheI and SacI restriction enzymes. Then, multi-enhancer elements 1 (ME.1) and 2 (ME.2) were cloned directly upstream of the ApoE promoter using MluI and […] restriction enzymes. To assess ApoE promoter- and ME.1/ME.2-driven transcriptional activation by LXR agonists, 5×10^4 MeWo cells were seeded into a 24-well plate. […] To assess transcriptional activation by LXRα or LXRβ, 5×10^4 MeWo cells expressing a control shRNA or shRNA targeting LXRα or LXRβ were seeded into a 24-well plate. […] After 24 hours, cells were lysed, and cell lysate was analyzed for firefly and renilla luciferase activity using the Dual Luciferase Assay System (E1960, Promega) and a Bio-Tek Synergy NEO Microplate Reader. Firefly luciferase signal was normalized to renilla luciferase signal and all data are expressed relative to the luciferase activity ratio measured in the DMSO-treated control cells.

O=C(O)Cc1cccc(OCCCN(Cc2cccc(C(F)(F)F)c2Cl)CC(c2ccccc2)c2ccccc2)c1 [GW3965 108, 3-[3-[N-(2-Chloro-3-trifluoromethylbenzyl)-(2,2-diphenylethyl)amino]propyloxy] phenylacetic acid hydrochloride]
suppression of tumor growth by the DTIC-resistant B16F10 melanoma clone [1]: more than 70%
inhibition of tumor growth, MeWo [2]: 70%
primary tumor growth in vivo (FIG. 4) ([3]; mouse, in vivo): inhibit
reduction in the growth of established large B16F10 tumors ([3]; tumors ~150 mm^3 at start, chow 150 mg/kg): roughly 50%
suppression of cell invasion and endothelial recruitment upon knockdown of ApoE in melanoma cells [4]: blocked
ability to suppress invasion and endothelial recruitment upon knockdown of melanoma LXRβ, but not LXRα ([4]; HT-144): abrogated
ability to upregulate ApoE transcription and protein expression upon melanoma cell depletion of LXRβ, but not LXRα (ApoE promoter): abrogated
